The source of these data is patent US9572813B2, “Antiviral agent” (SHIONOGI & CO., LTD., priority 2001, dated 2017).

Where two headings read alike, the source gives them in different places. Bounds are passed on as bounds.

In one data set the target is integrase (Human immunodeficiency virus type 1 group M subtype B, UniProt P04585). Description: Integrase inhibition assay (microtiter plate strand transfer, substrate DNA/target DNA, anti-digoxigenin ELISA). The following applies: concentration of the compound at percent inhibition 50%, 30° C. for 1 hour, OD at 405 nm. Type of data set: biochemical. The method, then: The inhibitory activities against integrase of the compounds in the present invention have been determined by the assay described below.
(1) Preparation of DNA Solutions.
Substrate DNA and target DNA, which sequences were indicated below, were synthesized by Amersham Pharmacia Biotech and dissolved in KTE buffer (composition: 100 mM KCl, 1 mM EDTA, 10 mM Tris-HCl (pH 7.6)) at concentration of 2 pmol/μl and 0.5 pmol/μl, respectively. The DNA solutions were annealed with each complement by slowly cooling after heating.
(2) Calculations of the Percent Inhibitions (the IC50 Values of Test Compounds)
Streptavidin, obtained from Vector Laboratories, was dissolved in 0.1 M carbonate buffer (composition: 90 mM Na2CO3, 10 mM NaHCO3) at concentration of 40 µg/ml. After coating each well of microtiter plates (obtained from NUNC) with 50 μL of the above solution at 4° C. over night, each well was washed twice with PBS (composition: 13.7 mM NaCl, 0.27 mM KCl, 0.43 mM Na2HPO4, 0.14 mM KH2PO4) and blocked with 300 μl of 1% skim milk in PBS for 30 min. Additionally, each well was washed twice with PBS and added 50 μl of substrate DNA solution (0.04 pmol/μl) diluted to one fiftieth with NTE buffer (composition: 1M NaCl, 10 mM Tris-HCl (pH8.0), 1 mM EDTA). The microtiter plates were kept at room temperature for 30 min. Then, each well was washed twice with PBS and once with H2O.
Subsequently, in the each well prepared above were added 45 μl of the reaction buffer prepared from 12 μl of the buffer (composition: 150 mM MOPS (pH 7.2), 75 mM MnCl2, 50 mM 2-mercaptoethanol, 25% glycerol, 500 μg/ml bovine serum albumin-fraction V), 1 μl of target DNA (5 pmol/μl), and 32 μl of the distilled water. Additionally, 6 μl of either a test compound in DMSO or DMSO for positive control (PC) was mixed with the above reaction buffer, then 9 μl of an integrase solution (30 pmol) was added and mixed well. In the well of negative control (NC) was added 9 μl of the integrase dilution buffer (composition: Hepes (pH7.6), 400 mM potassium glutamate, 1 mM EDTA, 0.1% NP-40, 20% glycerol, 1 mM DTT, 4M urea).
The microtiter plates were incubated at 30° C. for 1 hour. The reaction solution was removed and each well was washed twice with PBS. Subsequently, each well of the microtiter plates was filled with 100 μl of anti-digoxigenin antibody labeled with alkaline phosphatase (Sheep Fab fragment: obtained from Boehringer) and incubated at 30° C. for 1 hour. Then, each well was washed twice with 0.05% Tween20 in PBS and once with PBS. Next, 150 μl of the Alkaline phosphatase reaction buffer (composition: 10 mM p-Nitrophenylphosphate (obtained from Vector Laboratories), 5 mM MgCl2, 100 mM NaCl, 100 mM Tris-HCl (pH 9.5)) was added in each well. The microtiter plates were incubated at 30° C. for 2 hours. The optical density (OD) at 405 nm of each well was measured and the percent inhibition was determined by the following expression. The percent inhibition (%)=100[1−{(C abs.−NC abs.)/(PC abs.−NC abs.)}] • C abs.; the OD of the well of the • NC abs.: the OD of the negative control (NC) • PC abs.: the OD of the positive control (PC)
When the percent inhibition (%) is X % at the concentration of x μg/ml and the percent inhibition (%) is Y % at the concentration of y μg/ml, one of which is more than 50% and the other is less than 50%, IC50 can be determined by the following expression. IC50(μg/ml)=x−{(X−50),(x−y)/(X−Y)}
Compound No. in the Table 1 is the same as compound No. of the above example.
(In general: ELISA stands for enzyme-linked immunosorbent assay.)

For orientation: IC50 means the midpoint of a concentration-inhibition curve. Broadly, the melting point is the temperature of the solid-liquid transition.

Compound “3-hydroxy-1-isopropyl-4-(6-phenethylpyrimidine-4-yl)-1,5-dihydropyrrole-2-one [Compound H-7]” returned an IC50 against integrase of 0.68 µg/mL.

On to `CC(C)N1CC(C(=O)c2ccc(Cc3ccc(F)cc3)o2)=C(O)C1=O` [Compound A-7, 4-[5-(4-Fluorobenzyl)furan-2-carbonyl]-3-hydroxyl-1-isopropyl-1,5-dihydropyrrole-2-one], for which the melting point lay within 155 to 157 °C. Moreover, on integrase (read-out: IC50 (converted)), the 50% inhibitory concentration (IC50) was 2210 nM.

As to `CN1CC(C(=O)c2cccc(Cc3ccc(F)cc3)c2)=C(O)C1=O` [Compound A-12-a, 4-[3-(4-Fluorobenzyl)benzoyl]-3-hydroxy-1-methyl-1,5-dihydropyrrole-2-one], the melting point fell in the range of 135 to 137 °C. In addition, the IC50 on integrase (read-out: IC50 (converted)) is 1010 nM.

Consider `O=C(C1=C(O)C(=O)N(C2CC2)C1)c1ccc(Cc2ccc(F)cc2)o1` [Compound A-17, 1-Cyclopropyl-4-[5-(4-fluorobenzyl)furan-2-carbonyl]-3-hydroxy-1,5-dihydropyrrole-2-one], for which the melting point lay in the range of 158 to 159 °C. For the same compound, the IC50 at integrase (read-out: IC50 (converted)) was 2340 nM.

`CCCCN1CC(C(=O)c2ccc(Cc3ccc(F)cc3)o2)=C(O)C1=O` [Compound A-17-c, 1-Butyl-4-[5-(4-fluorobenzyl)furan-2-carbonyl]-3-hydroxy-1,5-dihydropyrrole-2-one]: the IC50 at integrase (read-out: IC50 (converted)) was 2630 nM.

The compound `CN1CC(C(=O)c2occc2Cc2ccc(F)cc2)=C(O)C1=O` [Compound A-50, 4-[3-(4-Fluorobenzyl)furan-2-carbonyl]-3-hydroxy-1-methyl-1,5-dihydropyrrole-2-one] returned a melting point of 208 to 210 °C. For the same compound, the IC50 on integrase (read-out: IC50 (converted)) is 507 nM.

On to `CC(C)Oc1cc(F)ccc1Cc1ccc(C(=O)C2=C(O)C(=O)N(C)C2)o1` [Compound A-141-k, 4-[5-(4-Fluoro-2-isopropoxybenzyl)furan-2-carbonyl]-3-hydroxy-1-methyl-1,5-dihydropyrrole-2-one], for which the melting point fell in the range of 126 to 129 °C. Moreover, the IC50 on integrase (read-out: IC50 (converted)) was 1820 nM.

As to `COC(C)(C)c1cc(Cc2ccc(F)cc2)c(C(=O)C2=C(O)C(=O)N(C)C2)o1` [Compound A-158, 4-[3-(4-Fluorobenzyl)-5-(1-methoxy-1-methylethyl)furan-2-carbonyl]-3-hydroxy-1-methyl-1,5-dihydropyrrole-2-one], the melting point fell in the range of 144 to 145 °C. The half-inhibitory concentration (IC50) at integrase (read-out: IC50 (converted)) was 1730 nM.

On to `CN1CC(c2cc(CCc3ccccc3)ncn2)=C(O)C1=O` [Compound B-6-a, 3-Hydroxy-1-methyl-4-(6-phenethylpyrimidine-4-yl)-1,5-dihydropyrrole-2-one], for which the melting point is 211 to 213 °C. Besides, the half-inhibitory concentration (IC50) on integrase (read-out: IC50 (converted)) is 5420 nM.

On to `O=C1C(O)=C(c2cc(CCc3ccccc3)ncn2)CN1C1CCCCC1` [Compound B-6-d, 1-Cyclohexyl-3-hydroxy-4-(6-phenethylpyrimidine-4-yl)-1,5-dihydropyrrole-2-one], for which the melting point was in the range of 248 to 250 °C. For the same compound, the IC50 on integrase (read-out: IC50 (converted)) is 6600 nM.

As to `CN1CC(c2cc(OCc3ccccc3)ncn2)=C(O)C1=O` [Compound B-12, 4-(6-Benzyloxypyrimidine-4-yl)-3-hydroxy-1-methyl-1,5-dihydropyrrole-2-one], the melting point was 203 to 204 °C. At integrase (read-out: IC50 (converted)), the IC50 was 975 nM.

Take `CN1CC(c2cc(OCc3ccc(F)cc3)ncn2)=C(O)C1=O` [Compound B-12-b, 4-[6-(4-Fluorobenzyloxyl)pyrimidine-4-yl]-3-hydroxy-1-methyl-1,5-dihydropyrrole-2-one]: the IC50 at integrase (read-out: IC50 (converted)) is 666 nM.

For `CN1CC(c2ccc(Cc3ccc(F)cc3)cn2)=C(O)C1=O` [Compound B-29, 4-[5-(4-Fluorobenzyl)-pyridine-2-yl]-3-hydroxy-1-methyl-1,5-dihydropyrrole-2-one], the melting point was in the range of 204 to 206 °C. For the same compound, the IC50 at integrase (read-out: IC50 (converted)) was 402 nM.

`CN1CC(c2ncc(OCc3ccc(F)cc3)cn2)=C(O)C1=O` [Compound B-68, 4-[5-(4-fluorobenzyloxy)pyrimidine-2-yl]-3-hydroxy-1-methyl-1,5-dihydropyrrole-2-one] yielded a melting point of 185 to 187 °C. The half-inhibitory concentration (IC50) at integrase (read-out: IC50 (converted)) was 698 nM.

With `O=c1c(O)c(-c2ccccn2)oc2cccc(OCc3ccc(F)cc3)c12` [Compound C-22, 5-[(4-fluorobenzyl)oxy]-3-hydroxy(2-pyridine-2-yl)-4H-1-benzopyrane-4-one], the melting point is 213 °C. The half-maximal inhibitory concentration (IC50) at integrase (read-out: IC50 (converted)) was 1320 nM.

As to `O=c1c(O)c(-c2nnc(Cc3ccc(F)cc3)o2)oc2ccccc12` [Compound C-26, 2-[5-(4-fluorobenzyl)-[1,3,4]-oxadiazole-2-yl]-3-hydroxy-4H-1-benzopyrane-4-one], the IC50 on integrase (read-out: IC50 (converted)) was 1060 nM.

For `Cn1ncnc1-c1oc2cccc(OCc3ccc(F)cc3)c2c(=O)c1O` [Compound C-39, 5-[(4-fluorobenzyl)oxy]-3-hydroxy-2-(2-methyl-2H-[1,2,4]triazole-3-yl)-4H-1-benzopyrane-4-one], the melting point was 215 to 216 °C. Also, the IC50 at integrase (read-out: IC50 (converted)) was 626 nM.

`O=c1c(O)c(-c2nnc(Cc3ccc(F)cc3)o2)[nH]c2ccccc12` [Compound D-5, 2-[5-(4-fluorobenzyl)-[1,3,4]oxadiazole-2-yl]-3-hydroxy-1H-quinoline-4-one] yielded a melting point of more than 300 °C. The IC50 at integrase (read-out: IC50 (converted)) was 1330 nM.

Compound `O=C(c1ccc(Cc2ccc(F)cc2)o1)c1occc(=O)c1O` [Compound E-8, 2-[5-(4-fluorobenzyl)furan-2-carbonyl]-3-hydroxypyrane-4-one] came in with a melting point of 157 to 159 °C. Further, the half-inhibitory concentration (IC50) on integrase (read-out: IC50 (converted)) is 445 nM.

In turn, `Cc1cc(=O)c(O)c(C(=O)c2ccc(Cc3ccc(F)cc3)o2)o1` [Compound E-16, 2-[5-(4-fluorobenzyl)furan-2-carbonyl]-3-hydroxy-6-methylpyrane-4-one] yielded a melting point of 173 to 175 °C. The half-maximal inhibitory concentration (IC50) at integrase (read-out: IC50 (converted)) is 366 nM.

Compound `O=C1CCCC(C(=O)c2ccc(Cc3ccc(F)cc3)o2)=C1O` [Compound F-4, 3-[5-(4-fluorobenzyl)furan-2-carbonyl]-2-hydroxy-2-cyclohexene-1-one] displayed a melting point of 133 to 134 °C. For the same compound, on integrase (read-out: IC50 (converted)), the IC50 is 1810 nM.

As to `Cc1nc(=O)c(O)c(-c2ccc(Cc3ccc(F)cc3)cn2)[nH]1` [Compound G-7, 6-[5-(4-fluorobenzyl)pyridine-2-yl]-5-hydroxy-2-methyl-1H-pyrimidine-4-one], the half-maximal inhibitory concentration (IC50) at integrase (read-out: IC50 (converted)) was 1540 nM.

In the case of `CCN1CCC(C(=O)c2ccc(Cc3ccc(F)cc3)o2)=C(O)C1=O` [Compound I-4, 1-ethyl-4-[5-(4-fluorobenzyl)furan-2-carbonyl]-3-hydroxy-5,6-dihydro-1H-pyridine-2-one], the IC50 at integrase (read-out: IC50 (converted)) was 1460 nM.

For `Cn1ccc(C(=O)c2ccc(Cc3ccc(F)cc3)o2)c(O)c1=O` [Compound J-4, 4-[5-(4-fluorobenzyl)furan-2-carbonyl]-3-hydroxy-1-methyl-1H-pyridine-2-one], the melting point fell in the range of 145 to 147 °C. Besides, the IC50 at integrase (read-out: IC50 (converted)) is 794 nM.

`Cn1ccc(-c2nnc(Cc3ccc(F)cc3)o2)c(O)c1=O` [Compound K-4, 4-[5-(4-fluorobenzyl)-[1,3,4]oxadiazole-2-yl]-3-hydroxy-1-methyl-1H-pyridine-2-one] had a melting point of 216 to 218 °C. Further, the IC50 at integrase (read-out: IC50 (converted)) is 1890 nM.

As for `O=C(c1ccc(Cc2ccc(F)cc2)o1)c1[nH]ccc(=O)c1O` [Compound L-4, 2-[5-(4-fluorobenzyl)furan-2-carbonyl]-3-hydroxy-1H-pyridine-4-one], on integrase (read-out: IC50 (converted)), the concentration for half-maximal inhibition (IC50) was 1560 nM.
